Experiments:
hLEC migration = test: Scratch migration assay, hLEC; format: cell-based, human
Description: (§1) Scratch migration assay—Migration assay was performed as per Liang et al., 2007^36, HUVECs and hLECs were grown to confluence in 24 well dishes, and then scratched with a 200 μL pipette tip. […] Four fields per well were imaged at T=0 hrs and at T=24 hrs post-scratch or T=72 hrs for HUVECs and hLECs respectively using an Olympus IX-81 inverted microscope equipped with a QImaging Retiga 4000R camera at 4× magnification. The percent change in migration was calculated by measuring the open area of the scratch at the above mentioned time-points (ImageJ). Results shown are representative of four independent experiments with HUVECs and three for hLECs.

[1] = test system: HUVEC tube/network formation; test: Tube formation assay in Matrigel matrix, HUVEC; format: cell-based, human; conditions: for inhibition of angiogenesis in Notch-expressing HUVECs / number of branch points per field: HUVEC; for number of branch points per field: all concentrations (2-20 μM); for network formation by HUVEC: lowest concentration (2 μM), 24 hrs
Description: Tube formation assay—This assay was performed based on the protocol by Arnaoutova and Kleinman, 2010^37.

[2] = test system: Notch target gene Hey1 in HUVEC; test: Quantitative RT-PCR of Notch target gene Hey1 in HUVEC; format: cell-based, human; conditions: 24 hrs post treatment
Description: RNA was extracted from cultured HUVEC or hLEC cells either 24 hrs or 72 hrs post treatment respectively using TRIzol reagent (Ambion 15596026) followed by DNase (Promega M6101) treatment and cDNA prepared using iScript (BioRad 170-8890). Quantitative RT-PCR was done on StepOnePlus (ABI) using TaqMan Gene Expression Master Mix (ThermoFisher Scientific 4369016). Gene expression was assessed using human Single-tube assays (Thermo Fisher Scientific/Applied Biosystems): GAPDH (4310884E), ACTB (Hs99999903_m1) and HEY1 (Hs01114113_m1). Comparative ΔΔCT method was used to analyze relative gene expression with ExpressionSuite Software (Thermo Fisher Scientific). Expression was normalized to housekeeping controls GAPDH and ACTB.

[3] = test system: human lymphatic endothelial cells (hLECs); test: Cell viability (trypan blue, Countess automated cell counter), hLEC; format: cell-based; conditions: for change of hLEC viability at concentrations less than 20 μM: concentrations lower than 20 μM, vs untreated controls
Description: (§2) Dermal human lymphatic endothelial cells (hLECs) from human neonates (HMVEC-dLyNeo-Der, Lonza CC-2812) and human umbilical venous endothelial cells (HUVEC, Lonza CC-2517) were used for in vitro assays (below) within 8 passages and maintained in EGM-2MV bullet kit (Lonza CC3202) and EGM bullet kit media respectively.
(§3) Cell viability: To examine the effect of GSI on cell viability, hLEC and HUVEC cultures were incubated with effects of graded concentrations [2, 4, 6, 8, 10, 20 μM] of DAPT (Selleckchem, S2215) or RO4909297 (Selleckchem, S1575) [2-20 μM] for 24-72 hours. The percentage of viable cells was determined using the Countess automated cell counter (Thermofisher, C10227). Briefly, 80-90% confluent HUVEC and hLEC cultures were trypsinized, washed, and 10 μL of cell sample was mixed with an equal amount of 0.4% trypan blue stain and loaded onto the counting chamber.

HUVEC migration = test: Scratch migration assay, HUVEC; format: cell-based, human
Description: as §1

[4] = Cell viability (trypan blue, Countess automated cell counter), hLEC; format: cell-based, human; conditions: human; 20 μM, hLEC; read-out: reduction of hLEC viability
Description: as §2, §3

Compound | hLEC migration reduced to (hLEC migration; 8 μM, hLEC, 72 hrs post-scratch) | inhibition of angiogenesis in Notch-expressing HUVECs [1] | number of branch points per field [1] | network formation by HUVEC [1] | lowest concentration that downregulated Hey1 expression in HUVECs [2] [µM] | reduction of hLEC viability ([3]; 20 μM, hLEC) [%] | change of hLEC viability at concentrations less than 20 μM [3] | HUVEC migration reduced to (HUVEC migration; 8 μM, 24 hrs post-scratch) | effectiveness on hLEC migration compared with 8 μM DAPT (hLEC migration; 6 μM, hLEC) | reduction of migration in hLECs (hLEC migration; at lower concentrations compared to HUVECs) | cytotoxicity at 20 μM [4] [%] | effectiveness on HUVEC migration compared with 8 μM DAPT (HUVEC migration; 6 μM)
C[C@H](NC(=O)Cc1cc(F)cc(F)c1)C(=O)N[C@H](C(=O)OC(C)(C)C)c1ccccc1 [DAPT, N-[N-(3,5-difluorophenacetyl-L-alanyl)]-S-phenylglycine t-butyl ester] | about 50% | effective in inhibiting angiogenesis | significantly reduced | dramatically reduced | 4 | ~30 | without significant changes | about 35% |  |  |  | 
CC(C)(C(=O)NCC(F)(F)C(F)(F)F)C(=O)N[C@@H]1C(=O)Nc2ccccc2-c2ccccc21 [RO4929097, 2,2-Dimethyl-N-[(7S)-6-oxo-6,7-dihydro-5H-dibenzo[b,d]azepin-7-yl]-N′-(2,2,3,3,3-pentafluoropropyl)malonamide] |  | effective in inhibiting angiogenesis | significantly reduced | dramatically reduced | 2 |  | without significant changes |  | more effective | greater than 50% | ~30 | more effective
